According to EP1229027A1 (priority 1996, dated 1998):

What was measured:
Phytophthora infestans = format: in vivo; settings: Rate 300 ppm; tomato seedlings; evaluated 6 days after inoculation
Plasmopara viticola = settings: in vivo
Pythium ultimum = experiment: Fungitoxicity against Pythium ultimum (mycelial dry weight growth in liquid asparagine-sucrose broth); format: cell-based; settings: Globisporangium ultimum; 100 ppm of the compound; 48 hours at 25 °C; increase in mycelial dry weight compared to controls
Protocol: Compounds were tested for fungitoxicity against Pythium ultimum according to the procedures set forth below.
Test compounds were dissolved in dimethylsulfoxide at 20 mg/ml and 0.1 ml was added to 19.9 ml of a liquid asparagine-sucrose broth, prepared according to the method described in Erwin, D.C., and Katznelson, K., Canadian Journal of Microbiology 7, 15 (1971), in 9 cm petri dishes to give a concentration of 100 ppm of the compound. Each plate was inoculated with a mycelial plug, 7 mm in diameter, taken from the growing edge of a culture of Pythium ultimum grown on potato dextrose agar. Two replicate plates were used for each treatment. After growth for 48 hours at 25 °C with shaking on a gyrotary shaker at 60 rpm, the increase in mycelial dry weight was determined. Fungitoxicity was recorded as percent inhibition of growth as compared to controls lacking the test compounds. 2.

Row | SMILES | TLB (percent disease control) (Phytophthora infestans) [%] | GDM (percent disease control) (Plasmopara viticola) [%] | inhibition at 100 ppm (Pythium ultimum) [%]
1 | CCC(C)(NC(=O)c1ccc2nc(C)oc2c1)C(=O)CCl (stereo not shown) [Compound 2, N-(3-chloro-1-ethyl-1-methyl-2-oxopropyl)-2-methylbenzoxazole-6-carboxamide] | 90 | 100 | 92.2
2 | CCC(C)(NC(=O)c1ccc2c(c1)NC(=O)CO2)C(=O)CCl (stereo not shown) [Compound 11, N-(3-chloro-1-ethyl-1-methyl-2-oxopropyl)-1,4-benzoxazine-3-one-6-carboxamide] | 95 | 0 | 34.3
3 | CCC(C)(NC(=O)c1ccc2c(c1)NC(=O)CO2)C(=O)C(Cl)Cl (stereo not shown) [Compound 13, N-(3,3-dichloro-1-ethyl-1-methyl-2-oxopropyl)-1,4-benzoxazine-3-one-6-carboxamide] | – | – | 60.8
